From ChEMBL document CHEMBL1155611, “Isolation and structure of the cytotoxin lyngbyabellin B and absolute configuration of lyngbyapeptin A from the marine cyanobacterium Lyngbya majuscula” (J Nat Prod, 2000) come the findings set out here.

Values after ≈ are worked out from the molar mass of the structure shown. Active and inactive are the calls of the source. The calls are words filed in the database; no cut-off is given here.

One experiment relates to KB. Nature of the experiment: Cytotoxicity against human KB cells. The experiment is classed as functional, cell-based.
The next experiment has as its system LoVo. Kind of experiment: Cytotoxicity against human LoVo cells. Format: functional, cell-based.

In the case of `CC[C@H](C)[C@@H](C(=O)N1CCC[C@H]1c1nccs1)N(C)C(=O)[C@H](CC(C)C)N(C)C(=O)[C@H](Cc1ccc(OC)cc1)N(C)C(=O)/C=C(\C)OC`, the result in the experiment on KB and in the experiment on LoVo was inactive.

Regarding `CC(C)[C@@H]1NC(=O)CNC(=O)[C@@H]2CSC(=N2)[C@H](C(C)(C)O)OC(=O)C(C)(C)[C@H](CCCC(C)(Cl)Cl)OC(=O)c2csc1n2` [LYNGBYABELLIN B], the IC50 was 0.1 µg/mL (≈ 0.147 µM) in the experiment with KB and 0.83 µg/mL (≈ 1.22 µM) in the experiment with LoVo.

By IC50 is commonly meant the concentration that inhibits the measured activity by half.
